The source of these data is patent publication US11110105B2, “Compounds, composition and uses thereof for treating cancer” (INSTITUT GUSTAVE ROUSSY, priority 2017, dated 2021).

Data set [1] is described as follows: MTT viability, mouse cell lines (text summary of table 2). The format is cell-based. The note with it: MCA205 sarcoma and B16F10 melanoma cells, MCA205 and B16F10, 6.25-25 μM, read-out: cell viability at efficient doses. As for the experimental part: In parallel, the same experiment was performed on the mouse melanoma B16F10 and sarcoma MCA205 cell lines that were transiently expressing the Globin-SL8-intron construct. […] Efficient doses lead to cell viability over 50% in these cell lines (table 2).
MTT assay on MCA205 and B16F10 cell lines treated with 6.25 μM, 15 μM or 25 μM of isoginkgetin. Dare are given as the mean of the percentage of cell viability ±SEM from at least three independent experiments.

A further data set has as its system B16F10 WT tumors. Kind of data set: Tumor challenge, B16F10 WT in immunodeficient Nu/Nu nude mice. The note with it: 18 mg/kg intraperitoneally, days 5, 10 and 15. The format is in vivo, mouse. The protocol:
(A) Experimental settings. Growth of (B) sarcoma MCA205 or (C) melanoma B16F10 cells that both stably express the globin-SL8-intron construct or (D) MCA205 Wild Type (WT) or (E) B16F10 WT cells that were subcutaneously inoculated on the flank of immunocompetent C57BL/6 mice injected intraperitoneally with 12 mg/kg or 18 mg/kg of isoginkgetin at days 5, 10 and 15 after inoculation. Tumor size was assessed every 3 to 4 days until reaching the established ethical endpoints. Each line represents the tumor size in area (mm^2) of 6 mice in each group. Size in area (mm^2) of (F) MCA205 globin-SL8-intron, (G) B16F10 globin-SL8-intron, (H) MCA205 WT or (I) B16F10 WT tumors subcutaneously inoculated on the flank of immunodeficient Nu/Nu Nude mice injected intraperitoneally with 18 mg/kg of isoginkgetin at days 5, 10 and 15 after inoculation. Data are presented at the day before the endpoints are reached.
Each line represents the tumor size in area (mm^2) of at least 6 mice in each group. The C right panel represents the tumor size at day 27. […]
Inventors then assessed the requirement of the immune response for isoginkgetin to reduce tumor growth Immunodeficient Nu/Nu nude mice were inoculated subcutaneously with either MCA205 or B16F10 cells that stably express the Globin-intron-SL8 or WT, and were treated with the same settings as previously described (FIG. 9A). […]

Data set [2] is described as follows: MTT viability, human cells (text summary of table 1). The format is cell-based. The note with it: concentrations used (2.5 and 6.25 μM), A375, A549, MRC5, read-out: viability of human cells upon treatment. From the text:
Cancer cells display different intracellular mechanisms that can shape the pool and the quantity of peptides presented on MHC class I (MHC-I) molecules at their surface, leading to reduction of their antigenicity and escape of T-cell recognition. Inventors have shown that PTPs are a major source of peptides for the endogenous MHC-I pathway in vitro. In addition, they have provided the first proof of the positive impact of splicing inhibition on PTPs-dependent antigen presentation by treating HEK cells with the splicing inhibitor isoginkgetin. The latter has been reported to inhibit the spliceosome during the early stages of its assembly. In view to improve antigenicity and immune recognition of cancer cell lines, inventors determined whether isoginkgetin was able to modulate positively the expression and the presentation of tumor associated PTPs-derived antigens (TA-PTPs) at cancer cells surface. For that purpose, the human melanoma cell line A375, the human lung cancer cell line A549 and the normal human fibroblast lung cell line MRC5 were transiently expressing the MHC-I H2-K^b molecule and the PTPs-SL8 epitope from an intron within the β-Globin gene construct (Globin-SL8-intron) and treated with different concentrations of isoginkgetin for 18 h. […]

Data set [3] is described as follows: MTT assay on A549 cell line. The format is cell-based. The note with it: human, A549 lung carcinoma cells, read-out: % cell viability (±SEM). As for the experimental part:
(§1) MCA205 mouse sarcoma cell line is cultured at 37° C. under 5% CO2 in RPMI 1640 medium (Life Technologies) in the presence of 1% glutamine, 1% sodium pyruvate, 1% non-essential amino-acids, 1% penicillin/streptomycin and 10% FBS (Life Technologies) under standard conditions. B16F10 mouse melanoma cell line, MRC5 human fibroblast cell line and A375 human melanoma cell line are cultured at 37° C. under 5% CO2 in DMEM medium (Life Technologies) containing 1% glutamine, 1% penicillin/streptomycin and 10% FCS under standard conditions. A549 human lung carcinoma cell line is cultured at 37° C. under 5% CO2 in DMEM/F12+Glutamax I in the presence of 1% Hepes, 1% sodium pyruvate and 10% FBS under standard conditions. Stable MCA205-Globin-SL8-intron cell line are cultured under the same condition as MCA205 cell line with additional 2 mg/ml G418 (geneticin from Life Technologies) for selection. Stable B16F10-Globin-SL8-intron cell line are cultured under the same condition as B16F10 cell line with additional 2 mg/ml G418 (geneticin from Life Technologies) for selection. The SL8/Kb-specific (B3Z) T-cell reporter hybridoma are cultured at 37° C. under 5% CO2 in RPMI 1640 medium (Life Technologies) in the presence of 1% glutamine, 0.1% β-galactosidase, 1% penicillin/streptomycin and 10% FCS under standard conditions. […]
On the technique in general: Tetrazolium dyes change colour on reduction, which living cells bring about.

Data set [4] in a line: MTT assay on MRC5 cell line. The format is cell-based. The note with it: human, MRC5 fibroblast cells, read-out: % cell viability (±SEM). As for the experimental part: as §1

Consider `COc1ccc(-c2cc(=O)c3c(O)cc(O)c(-c4cc(-c5cc(=O)c6c(O)cc(O)cc6o5)ccc4OC)c3o2)cc1` [Isoginkgetin, isoginkgetin], for which the figures for the viability in data set [1] and in data set [2] were greater than 50% and greater than 80%, respectively. Further, the tumor growth entry with B16F10 WT tumors is “No effect”. Moreover, the viability at 2.5 µM in data set [3] (A549, 2.5 μM) was found to be 100%; in data set [4] (MRC5, 2.5 μM) it was 100%. The viability at 6.25 µM in data set [3] (A549, 6.25 μM) came out at 84%; in data set [4] (MRC5, 6.25 μM), 100%.

For orientation: viability means a read-out of living cells in per cent, often relative to untreated cells.
